How the values were obtained:
human platelets [1] = test: Thrombin-induced human platelet aggregation; assay type: cell-based; conditions: for NO delay of thrombin-induced platelet aggregation: DEA/NO 10 μM
Method in brief: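 Washed human platelets in Tyrode's buffer pH 7.4 (2×10^5/μl) are stirred at 1200 rpm and 37 °C, and optical aggregation is followed for 5 min; under static conditions, A400 is tracked for 5 min instead. TSP1 agents or 1 μM peptide C6d are pre-incubated for 15 min before thrombin ± DEA/NO (10 μM).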

[2] = test system: murine ASMC (WT, CD36 null, CD47 null); test: Intracellular cGMP in murine ASMC; assay type: cell-based, mouse
Method in brief: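 Aortic smooth muscle cells from wild-type C57Bl/6, CD36-null or CD47-null mice, passage 1–4, plated overnight in full growth medium. Weaned to SM-GM + 0.1% BSA before treatment with NO donor and other agents. Intracellular cGMP measured by enzyme immunoassay.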

human platelets [3] = test: cGMP in human platelets; assay type: cell-based
Experimental: Fresh human platelets at 2×10^5 platelets/μl in Tyrode's buffer or PRP were pre-incubated with the indicated agents for 15 minutes and then challenged with DEA/NO for the indicated time interval at room temperature and total cGMP determined via immunoassay (Amersham, GE Healthcare, Buckinghamshire, UK). Murine WT and TSP1-null platelets were treated with DEA/NO and cGMP flux measured.

[4] = test system: myosin light chain-2 (MLC) in HAVSMC; test: Myosin light chain phosphorylation in VSMC; assay type: cell-based, human; conditions: S1P 100 nM, DEA/NO 10 μM, TSP1 2.2 nM
Experimental: VSMC were plated at 90% confluence and grown in smooth muscle growth media containing 2% FBS overnight. To stimulate MLC phosphorylation, sphingosine-1-phosphate (SIP; Biomol International, Plymouth, Pa.) was added at a final concentration of 100 nM. The nitric oxide donor DEA/NO was added at a final concentration of 10 μM. For TSP1 pretreatment, cells were incubated with 2.2 nM TSP1 before addition of SIP or DEA/NO. Cells were subsequently washed twice with PBS and lysed immediately in 1×SDS sample buffer containing 10 μg/mL leupeptin, 10 μg/mL aprotinin, 1 mM Na3VO4, and 40 mM NaF. Lysates prepared in the SDS sample buffer described above were electrophoresed in 4-12% BisTris NuPAGE gels and transferred to PVDF membranes prior to immunoblotting with rabbit polyclonal antibodies against myosin light chain-2 (MLC) and phospho-MLC2 (T18/S19, Cell Signaling Technology, Danvers, Mass.).

TSP1: thrombospondin-1 prepared from human platelets
platelet aggregation at high shear in the presence of NO (human platelets [1]; GGTI-298 preincubation): maintained its ability to accelerate platelet aggregation
lowest concentration tested, sufficient to accelerate platelet aggregation in the presence of NO (human platelets [1]; high shear): 0.022 nM
NO delay of thrombin-induced platelet aggregation (human platelets [1]; high shear, thrombin 0.2 U/ml): reversed in a dose-dependent manner
NO delay of thrombin-induced platelet aggregation (human platelets [1]; static / low shear conditions): completely abrogated
NO-stimulated cGMP ([2]; CD36 null MASMC): completely inhibited
NO-stimulated cGMP ([2]; CD47 null MASMC): did not significantly inhibit
NO-stimulated cGMP ([2]; WT MASMC): inhibited
NO-stimulated cGMP flux in platelets (human platelets [3]; PRP, TSP1 2.2 nM): continued to block
NO stimulated cGMP in platelets (human platelets [3]; washed human platelets in Tyrode's buffer): decreased
MLC dephosphorylation induced by NO [4]: partially restored MLC phosphorylation
